Molecular target: Tyrosine-protein kinase BTK (Homo sapiens, UniProt Q06187)
Assay: In Vitro BTK Kinase Assay: Btk-PolyGAT-LS Assay
Protocol: The purpose of the BTK in vitro assay is to determine compound potency against BTK through the measurement of IC50. […] For a typical assay, a 24 μL aliquot of a ATP/peptide master mix (final concentration; ATP 10 μM, polyGAT 100 nM) in kinase buffer (10 mM Tris-HCl pH 7.5, 10 mM MgCl2, 200 μM Na3PO4, 5 mM DTT, 0.01% Triton X-100, and 0.2 mg/ml casein) is added to each well. […] The assay is incubated for 30 minutes before being stopped with 28 μL of a 50 mM EDTA solution. […] The plate is covered and incubated for 45 minutes at room temperature.

Tyrosine-protein kinase BTK, sequence (Q06187 whole entry): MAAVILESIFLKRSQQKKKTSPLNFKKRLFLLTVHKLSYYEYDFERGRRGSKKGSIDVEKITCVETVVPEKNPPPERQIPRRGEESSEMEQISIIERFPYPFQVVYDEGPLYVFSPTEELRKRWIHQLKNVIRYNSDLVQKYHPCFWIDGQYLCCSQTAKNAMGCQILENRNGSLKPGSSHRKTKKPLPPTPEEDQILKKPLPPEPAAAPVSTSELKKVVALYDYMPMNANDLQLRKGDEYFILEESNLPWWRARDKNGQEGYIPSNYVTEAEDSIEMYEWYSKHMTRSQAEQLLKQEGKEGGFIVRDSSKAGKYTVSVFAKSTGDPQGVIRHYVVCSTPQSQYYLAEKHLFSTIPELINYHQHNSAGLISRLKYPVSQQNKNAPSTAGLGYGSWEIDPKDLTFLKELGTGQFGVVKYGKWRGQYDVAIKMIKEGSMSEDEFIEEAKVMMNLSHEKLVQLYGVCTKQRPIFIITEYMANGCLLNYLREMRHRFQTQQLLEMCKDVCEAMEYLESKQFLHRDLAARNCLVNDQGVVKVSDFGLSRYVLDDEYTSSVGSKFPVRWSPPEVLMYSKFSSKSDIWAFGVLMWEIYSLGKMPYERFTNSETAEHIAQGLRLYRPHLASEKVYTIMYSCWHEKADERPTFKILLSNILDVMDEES

## Cn1cc(-c2cn3nccc3c(OC3CCN(C(=O)/C=C\CCl)CC3)n2)cn1 [US20240083900, Example 8]
  IC50: < 1 nM

Source: BindingDB's records for patent US20240083900 (Biogen Ma, 2024)
